From PubChem BioAssay (NCI) come the findings set out here.

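Each compound was tested at five concentrations against cells in 96-well plates for 48 hours. The concentration for full growth arrest is given as TGI.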 Bounds are passed on as bounds.

For the first assay, the system named is LOX IMVI melanoma. Briefly: NCI-60 cell line screen, 48 h.
On to `Cc1cc(C2CC(O)C(CO)O2)c(F)cc1F` (stereo unspecified), for which the TGI was more than 100 µM.
For the compound `Nc1nc(Cl)c(N)c(NCC2(CO)CCCC2)n1`, the TGI is more than 100 µM.
Compound `CCOC(=O)C1(C/C=C/CBr)CCc2ccccc2C1=O` (stereo unspecified) yielded a TGI of 27.5 µM.
Still for that read-out and setting: the same measure for `O=C(Oc1cccnc1)c1cc2cc(CCl)ccc2oc1=O`: 44.7 µM; for `O=C1c2cccc3cccc(c23)C2NCCCN12` (stereo unspecified): more than 100 µM; for `CN(C)c1ccc(/C=N\NC(=O)Nc2cccc3ccccc23)cc1`: 22.1 µM.
The compound `O=S1(=O)Cc2ccc3c4c2-c2c(ccc5ccc(c-4c25)CS(=O)(=O)C3)C1` came in with a TGI of more than 100 µM.
As to `Cc1cc(C)c2c(c1)C/C(=C\c1ccccc1C(=O)O)C2=O`, the TGI is more than 100 µM.
Same read-out and setting: the same measure for `[N-]=[N+]=Nc1cc(=O)[nH]nc1-c1ccccc1`: more than 100 µM; for `Cc1nc2ccc(NC(=S)Nc3ccccc3)cc2c(=O)n1-c1ccccc1`: more than 100 µM.
On the same count and under the same terms, the same measure for `Cn1c(=O)oc2cc(C(O)CN3CCN(Cc4ccccn4)CC3)c(Cl)cc21` (stereo unspecified): more than 100 µM; for `O=c1cc(CO)oc(C(O)c2ccccc2)c1O` (stereo unspecified): more than 100 µM.

The subject of another assay is SK-MEL-2 melanoma. As to the kind of experiment: NCI-60 cell line screen, 48 h.
`O=C1c2cccc3cccc(c23)C(=O)N1CCCNCCCNCCCCNCCCNCCCN1C(=O)c2cccc3cccc(c23)C1=O` yielded a TGI of 16.8 µM.
Same read-out and setting: the same measure for `Fc1ccc(C(=C2CCN(CCc3ccc4[nH]c(=S)[nH]c4c3)CC2)c2ccc(F)cc2)cc1`: 7.95 µM.
Same read-out and setting: then `Nc1nc(NCC2(CO)CC2)cc(=O)[nH]1`, with more than 100 µM.
The same measure, in the same setting: then `Cc1ccc(-c2n[nH]c(=O)n2/N=C\c2ccc([N+](=O)[O-])cc2)cc1`, with more than 100 µM; and `Nc1nc(Cl)c(N)c(NCC2(CO)CCCC2)n1`, with more than 100 µM.
Regarding `CCOC(=O)C1(C/C=C/CBr)CCc2ccccc2C1=O` (stereo unspecified), the TGI came to 37.7 µM.
Still for that read-out and setting: the same measure for `O=C(Oc1cccnc1)c1cc2cc(CCl)ccc2oc1=O`: 54 µM.
The same measure, in the same setting: the same measure for `CN(C)c1ccc(/C=N\NC(=O)Nc2cccc3ccccc23)cc1`: 35.7 µM; for `O=S1(=O)Cc2ccc3c4c2-c2c(ccc5ccc(c-4c25)CS(=O)(=O)C3)C1`: more than 100 µM.
Regarding `Cc1nc2ccc(NC(=S)Nc3ccccc3)cc2c(=O)n1-c1ccccc1`, the TGI was more than 100 µM.
Still for that read-out and setting: then `O=c1cc(CO)oc(C(O)c2ccccc2)c1O` (stereo unspecified), with more than 100 µM.

The next assay has as its system OVCAR-8 ovarian. Briefly: NCI-60 cell line screen, 48 h.
`O=C1c2cccc3cccc(c23)C(=O)N1CCCNCCCNCCCCNCCCNCCCN1C(=O)c2cccc3cccc(c23)C1=O` came in with a TGI of 40 µM.
Take `Fc1ccc(C(=C2CCN(CCc3ccc4[nH]c(=S)[nH]c4c3)CC2)c2ccc(F)cc2)cc1`: the TGI was 8.26 µM.
With `Nc1nc(NCC2(CO)CC2)cc(=O)[nH]1`, the TGI was more than 100 µM.
Consider `Cc1ccc(-c2n[nH]c(=O)n2/N=C\c2ccc([N+](=O)[O-])cc2)cc1`, for which the TGI is more than 100 µM.
The same measure, in the same setting: then `Cc1cc(C2CC(O)C(CO)O2)c(F)cc1F` (stereo unspecified), with more than 100 µM; and `Nc1nc(Cl)c(N)c(NCC2(CO)CCCC2)n1`, with more than 100 µM.
As to `CCOC(=O)C1(C/C=C/CBr)CCc2ccccc2C1=O` (stereo unspecified), the TGI was determined as 36.7 µM.
`O=C(Oc1cccnc1)c1cc2cc(CCl)ccc2oc1=O`: the TGI was more than 100 µM.
With `O=C1c2cccc3cccc(c23)C2NCCCN12` (stereo unspecified), the TGI was more than 100 µM.
Still for that read-out and setting: the same measure for `CN(C)c1ccc(/C=N\NC(=O)Nc2cccc3ccccc23)cc1`: more than 100 µM; for `O=S1(=O)Cc2ccc3c4c2-c2c(ccc5ccc(c-4c25)CS(=O)(=O)C3)C1`: more than 100 µM; for `Cc1cc(C)c2c(c1)C/C(=C\c1ccccc1C(=O)O)C2=O`: more than 100 µM.
Still for that read-out and setting: then `[N-]=[N+]=Nc1cc(=O)[nH]nc1-c1ccccc1`, with more than 100 µM.
On the same count and under the same terms, then `Cc1nc2ccc(NC(=S)Nc3ccccc3)cc2c(=O)n1-c1ccccc1`, with more than 100 µM; and `Cn1c(=O)oc2cc(C(O)CN3CCN(Cc4ccccn4)CC3)c(Cl)cc21` (stereo unspecified), with more than 100 µM.
The compound `O=c1cc(CO)oc(C(O)c2ccccc2)c1O` (stereo unspecified) gave a TGI of more than 100 µM.

Another assay concerns DU-145 prostate. Briefly: NCI-60 cell line screen, 48 h.
`O=C1c2cccc3cccc(c23)C(=O)N1CCCNCCCNCCCCNCCCNCCCN1C(=O)c2cccc3cccc(c23)C1=O`: the TGI amounted to 14 µM.
Same read-out and setting: the same measure for `Fc1ccc(C(=C2CCN(CCc3ccc4[nH]c(=S)[nH]c4c3)CC2)c2ccc(F)cc2)cc1`: 8.91 µM.
Same read-out and setting: then `Nc1nc(NCC2(CO)CC2)cc(=O)[nH]1`, with more than 100 µM.
Same read-out and setting: then `Cc1ccc(-c2n[nH]c(=O)n2/N=C\c2ccc([N+](=O)[O-])cc2)cc1`, with more than 100 µM.
With `Cc1cc(C2CC(O)C(CO)O2)c(F)cc1F` (stereo unspecified), the TGI is more than 100 µM.
The same measure, in the same setting: the same measure for `Nc1nc(Cl)c(N)c(NCC2(CO)CCCC2)n1`: more than 100 µM; for `CCOC(=O)C1(C/C=C/CBr)CCc2ccccc2C1=O` (stereo unspecified): 26.9 µM.
Same read-out and setting: the same measure for `O=C(Oc1cccnc1)c1cc2cc(CCl)ccc2oc1=O`: 39.5 µM.
Still for that read-out and setting: the same measure for `O=C1c2cccc3cccc(c23)C2NCCCN12` (stereo unspecified): more than 100 µM; for `CN(C)c1ccc(/C=N\NC(=O)Nc2cccc3ccccc23)cc1`: 30.9 µM.
With `O=S1(=O)Cc2ccc3c4c2-c2c(ccc5ccc(c-4c25)CS(=O)(=O)C3)C1`, the TGI was more than 100 µM.
Same read-out and setting: the same measure for `Cc1cc(C)c2c(c1)C/C(=C\c1ccccc1C(=O)O)C2=O`: more than 100 µM; for `[N-]=[N+]=Nc1cc(=O)[nH]nc1-c1ccccc1`: more than 100 µM; for `Cc1nc2ccc(NC(=S)Nc3ccccc3)cc2c(=O)n1-c1ccccc1`: more than 100 µM.
`Cn1c(=O)oc2cc(C(O)CN3CCN(Cc4ccccn4)CC3)c(Cl)cc21` (stereo unspecified) showed a TGI of more than 100 µM.
Same read-out and setting: the same measure for `O=c1cc(CO)oc(C(O)c2ccccc2)c1O` (stereo unspecified): more than 100 µM.

For a further assay, the system named is OVCAR-4 ovarian. As to the kind of experiment: NCI-60 cell line screen, 48 h.
`O=C1c2cccc3cccc(c23)C(=O)N1CCCNCCCNCCCCNCCCNCCCN1C(=O)c2cccc3cccc(c23)C1=O` came in with a TGI of 19.1 µM.
Compound `Fc1ccc(C(=C2CCN(CCc3ccc4[nH]c(=S)[nH]c4c3)CC2)c2ccc(F)cc2)cc1` had a TGI of 12.7 µM.
Same read-out and setting: the same measure for `Nc1nc(NCC2(CO)CC2)cc(=O)[nH]1`: more than 100 µM; for `Cc1ccc(-c2n[nH]c(=O)n2/N=C\c2ccc([N+](=O)[O-])cc2)cc1`: more than 100 µM; for `Cc1cc(C2CC(O)C(CO)O2)c(F)cc1F` (stereo unspecified): more than 100 µM.
Still for that read-out and setting: the same measure for `Nc1nc(Cl)c(N)c(NCC2(CO)CCCC2)n1`: more than 100 µM; for `CCOC(=O)C1(C/C=C/CBr)CCc2ccccc2C1=O` (stereo unspecified): 29.7 µM.
On the same count and under the same terms, the same measure for `O=C(Oc1cccnc1)c1cc2cc(CCl)ccc2oc1=O`: 60.3 µM; for `O=C1c2cccc3cccc(c23)C2NCCCN12` (stereo unspecified): more than 100 µM; for `CN(C)c1ccc(/C=N\NC(=O)Nc2cccc3ccccc23)cc1`: 40.4 µM.
With `O=S1(=O)Cc2ccc3c4c2-c2c(ccc5ccc(c-4c25)CS(=O)(=O)C3)C1`, the TGI is more than 100 µM.
The compound `Cc1cc(C)c2c(c1)C/C(=C\c1ccccc1C(=O)O)C2=O` yielded a TGI of more than 100 µM.
Still for that read-out and setting: then `[N-]=[N+]=Nc1cc(=O)[nH]nc1-c1ccccc1`, with more than 100 µM; and `Cc1nc2ccc(NC(=S)Nc3ccccc3)cc2c(=O)n1-c1ccccc1`, with more than 100 µM.
The same measure, in the same setting: then `Cn1c(=O)oc2cc(C(O)CN3CCN(Cc4ccccn4)CC3)c(Cl)cc21` (stereo unspecified), with more than 100 µM; and `O=c1cc(CO)oc(C(O)c2ccccc2)c1O` (stereo unspecified), with more than 100 µM.
